Values quoted from earlier work in patent US20100210586A1, “POMEGRANATE EXTRACTS, NUTRITIONAL PRODUCTS CONTAINING THEM AND THEIR USES” (PROBELTE PHARMA, S.A., priority 2007, published 2010).

Details: oral

absorption when administered orally: poorly absorbed
Compound: O=c1oc2c(O)c(O)cc3c(=O)oc4c(O)c(O)cc1c4c23 [ellagic acid]
